Assay results: patent EP0595557A1, “New substituted azetidinones as anti-inflammatory and antidegenerative agents” (MERCK & CO. INC., priority 1992, dated 1994)

Molecular target: T1, Human Polymorphonuclear Leukocyte Elastase (Homo sapiens, UniProt P08246)
T1 construct: Crude extract of human polymorphonuclear leukocytes (PMN) containing elastase activity; from tissue; host or cells: human polymorphonuclear leukocytes (crude extract)
T1 sequence (P08246 30-267): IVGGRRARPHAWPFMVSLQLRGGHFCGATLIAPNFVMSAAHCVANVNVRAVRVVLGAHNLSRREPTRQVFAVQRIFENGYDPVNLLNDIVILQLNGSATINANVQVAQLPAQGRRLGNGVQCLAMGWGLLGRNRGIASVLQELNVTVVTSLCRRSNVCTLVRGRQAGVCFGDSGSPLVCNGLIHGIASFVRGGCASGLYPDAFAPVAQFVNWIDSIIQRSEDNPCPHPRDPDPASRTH
Assay: Enzyme assay for inhibition of human polymorphonuclear leukocyte elastase via hydrolysis of Boc-AAPAN or Boc-AAPVN
Assay type: biochemical
Details: expressed to the nearest thousand; for kinact/KI: pH 7.5, second order rate constant for inactivation of the enzyme, read-out: Kobs/[I]
Summary of the method: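 Crude human PMN extract as enzyme source, with 0.2 mM Boc-AAPAN in 0.05M TES buffer pH 7.5. Inhibitors in DMSO were added to substrate before the extract, and rate was followed as ΔOD/min at 410 mµ. Values are kobs/I, the second-order inactivation rate constant (per mole per second).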

kinact/KI [M⁻¹ s⁻¹] | Kobs/[I] (second order rate constant for inactivation of the enzyme, pH 7.5) | Compound
612000 |  | CCC[C@@H](NC(=O)N1C(=O)C(CC)(CC)[C@@H]1Oc1cc(C)c(C(=O)OCCN(C(C)C)C(C)C)c(C)c1)c1ccc(C)cc1 [Compound 306, 2-[bis(1-methylethyl)amino]-ethyl [S-(R*,S*)]-4-[[3,3-diethyl-1-[[[1-(4-methylphenyl)butyl]amino]carbonyl]-4-oxo-2-azetidinyl]oxy]-2,6-dimethyl-benzoate]
352000 |  | CCC[C@@H](NC(=O)N1C(=O)C(CC)(CC)[C@@H]1Oc1cc(C)c(C(=O)N(C)CCN(C)C)c(C)c1)c1ccc(C)cc1 [Compound 307]
377000 |  | CCC[C@@H](NC(=O)N1C(=O)C(CC)(CC)[C@@H]1Oc1cc(C)c(C(=O)N(C)CCN(CC)CC)c(C)c1)c1ccc(C)cc1 [Compound 308]
398000 |  | CCC[C@@H](NC(=O)N1C(=O)C(CC)(CC)[C@@H]1Oc1cc(C)c(C(=O)N(CC)CCN(C)C)c(C)c1)c1ccc(C)cc1 [Compound 309]
838000 |  | CCC[C@@H](NC(=O)N1C(=O)C(CC)(CC)[C@@H]1Oc1ccc(C(=O)N(C)CCN(C)C)c(O)c1)c1ccc(C)cc1 [Compound 310]
 | 1,700,000 per mole per second | [S-(R*,S*)]-2-[4-[[(4-Methyl)piperazin-1-yl]carbonyl] phenoxy]-((3,3-diethyl-N-[1-(methylphenyl)butyl]-4-oxo-1-azetidinecarboxamide [Compound 242]
